Among the data in ChEMBL document CHEMBL5325495, “Synthesis and anti-cancer potential of potent peripheral MAOA inhibitors designed to limit blood:brain penetration” (Bioorg Med Chem, 2023) are IC50 and CC50 values, retold here.

Experiment [1] deals with T1, Amine oxidase [flavin-containing] A (Homo sapiens, UniProt P21397).
T1 sequence (P21397 whole entry): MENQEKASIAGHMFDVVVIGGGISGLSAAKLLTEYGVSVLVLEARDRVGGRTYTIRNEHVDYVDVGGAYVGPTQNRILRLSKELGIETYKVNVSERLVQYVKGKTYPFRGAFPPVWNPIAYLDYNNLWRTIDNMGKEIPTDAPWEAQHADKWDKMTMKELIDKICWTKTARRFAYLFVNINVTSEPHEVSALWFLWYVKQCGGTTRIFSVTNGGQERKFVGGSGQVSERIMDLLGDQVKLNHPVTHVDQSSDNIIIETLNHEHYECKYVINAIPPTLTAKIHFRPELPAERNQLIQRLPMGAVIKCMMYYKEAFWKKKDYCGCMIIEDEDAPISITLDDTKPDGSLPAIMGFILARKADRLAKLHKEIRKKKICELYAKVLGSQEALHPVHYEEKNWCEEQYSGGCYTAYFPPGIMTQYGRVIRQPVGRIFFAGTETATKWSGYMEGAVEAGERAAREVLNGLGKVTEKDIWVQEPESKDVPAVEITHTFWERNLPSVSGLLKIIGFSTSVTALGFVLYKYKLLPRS
Nature of the experiment: Inhibition of recombinant human MAO-A expressed in baculovirus infected BTI insect cells.

The target of experiment [2] is T2, Amine oxidase [flavin-containing] B (Homo sapiens, UniProt P27338).
T2 sequence (P27338 whole entry): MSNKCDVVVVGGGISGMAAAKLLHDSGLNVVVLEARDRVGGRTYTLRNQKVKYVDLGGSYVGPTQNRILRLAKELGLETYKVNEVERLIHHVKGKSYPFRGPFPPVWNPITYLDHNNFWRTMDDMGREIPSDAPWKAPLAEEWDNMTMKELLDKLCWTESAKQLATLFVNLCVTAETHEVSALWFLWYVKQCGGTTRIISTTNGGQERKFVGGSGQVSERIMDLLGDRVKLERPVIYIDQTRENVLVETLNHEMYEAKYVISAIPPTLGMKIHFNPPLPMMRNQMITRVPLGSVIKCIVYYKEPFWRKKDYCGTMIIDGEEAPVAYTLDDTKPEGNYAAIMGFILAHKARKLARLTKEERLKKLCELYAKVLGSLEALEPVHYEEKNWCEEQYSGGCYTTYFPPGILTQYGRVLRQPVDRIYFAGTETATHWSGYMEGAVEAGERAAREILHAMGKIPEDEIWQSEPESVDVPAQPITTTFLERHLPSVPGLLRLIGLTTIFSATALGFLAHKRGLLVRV
Put plainly: Inhibition of recombinant human MAO-B expressed in baculovirus infected BTI insect cells. Type of experiment: cell-based.

Another experiment deals with LNCaP. Nature of the experiment: Cytotoxicity against human LNCaP cells incubated for 3 days by Cell-Titer Glo assay. It is filed as functional. To be noted: 72 h, time 3 day.
For the next experiment, the system named is LNCaP C4-2B. Nature of the experiment: Cytotoxicity against human LNCaP C4-2B cells incubated for 3 days by Cell-Titer Glo assay. Type of experiment: functional. The settings on record: 72 h, time 3 day.

By IC50 is commonly meant the concentration that gives 50% inhibition. What is called CC50 is the concentration at which the toxic effect on the cells reaches its halfway point.

`C#CCN(C)CCCOc1cc(N)c(Cl)cc1Cl`: the 50% inhibitory concentration (IC50) in experiment [1] is 0.0148 µM; in experiment [2], above 500 µM. The CC50 in the experiment with LNCaP was determined as 31.1 µM; in the experiment on LNCaP C4-2B it was 31.6 µM.
In the same order, the values of `C#CCN(C)CCCOc1cc(O)c(Cl)cc1Cl` are 0.0244 µM, 0.91 µM, 35.5 µM and 30.2 µM.
In the same order, the values of `C#CCN(C)C[C@H](O)COc1cc(N)c(Cl)cc1Cl` are 0.0715 µM, above 500 µM, 78.9 µM and 73.7 µM.
As to `C#CCN(C)CCCOc1cc(C)c(Cl)cc1Cl`, the half-maximal inhibitory concentration (IC50) came to 6.78 µM in experiment [1] and 122 µM in experiment [2]. In addition, the CC50 in the experiment on LNCaP turned out to be 37 µM; in the experiment with LNCaP C4-2B it was 66 µM.
Take `C#CCN(CCO)CCCOc1cc(N)c(Cl)cc1Cl`: the IC50 in experiment [1] was 0.764 µM; in experiment [2], above 500 µM. Moreover, the CC50 in the experiment with LNCaP stood at 55.8 µM; in the experiment with LNCaP C4-2B, 43.9 µM.
The matching figures for `C#CCN(C)CCCOc1cc(NC(=O)c2cc[nH]n2)c(Cl)cc1Cl`: 25.7 µM, above 500 µM, 15.8 µM and 32.5 µM.
For `NNCCc1ccccc1` [PHENELZINE], the values for the CC50 in the experiment on LNCaP and with LNCaP C4-2B were 121 µM and 157 µM, respectively.
As for `C#CCN(C)CCCOc1cc(NC=O)c(Cl)cc1Cl`, the IC50 in experiment [1] turned out to be 6.6 µM; in experiment [2] it was 25.3 µM. Besides, the CC50 in the experiment on LNCaP was determined as 85.9 µM; in the experiment with LNCaP C4-2B it was 84 µM.
`C#CCN(C)CCCOc1cc(C#N)c(Cl)cc1Cl`: the IC50 in experiment [1] came to 0.103 µM; in experiment [2], 38 µM. The CC50 in the experiment with LNCaP was found to be 65.4 µM; with LNCaP C4-2B, 72.4 µM.
The matching figures for `C#CCN(C)CCCOc1cc(NS(C)(=O)=O)c(Cl)cc1Cl`: 0.064 µM, 69.6 µM, 103 µM and 119 µM.
Regarding `C#CCN(CCO)CCCOc1ccc(Cl)cc1Cl`, the IC50 in experiment [1] is 0.794 µM; in experiment [2], above 500 µM. For the same compound, the figures for the CC50 in the experiment with LNCaP and in the experiment with LNCaP C4-2B were 35.7 µM and 46.5 µM, respectively.
As to `C#CCN(C)CCCOc1ccc(Cl)cc1Cl` [CLORGILINE], the CC50 turned out to be 51.5 µM in the experiment with LNCaP and 53.5 µM in the experiment on LNCaP C4-2B.
Regarding `C#CCN(C)CCCOc1cc(NC(C)=O)c(Cl)cc1Cl`, the results for the IC50 in experiment [1] and in experiment [2] were 8.66 µM and 352 µM, respectively. Moreover, the figures for the CC50 with LNCaP and in the experiment with LNCaP C4-2B were 97.3 µM and 97 µM, respectively.
On to `C#CCN(C)C[C@@H](O)COc1cc(N)c(Cl)cc1Cl`, for which the IC50 in experiment [1] was 0.0715 µM; in experiment [2] it was above 500 µM. Besides, the results for the CC50 in the experiment with LNCaP and in the experiment with LNCaP C4-2B were 78.9 µM and 73.7 µM, respectively.
